According to US12396983B2, “Composition comprising rilmenidine compound as active ingredient for treatment of fragile X syndrome or related developmental disability” (NEUROVENTI, priority 2020, dated 2025):

Key:
[1] = system: animal model lacking Cntnap2; test: three-chamber test, social preference (novel vs familiar mouse) in Cntnap2-deficient autism animal model; format: in vivo; conditions: Cntnap2-deficient mice treated with rilmenidine, FIG. 5
Procedure: To confirm the therapeutic effect of rilmenidine on social deficits, one of the phenotypes of developmental disorders, a three-chamber test was performed using an animal model lacking Cntnap2. FIG. 5 is a result of evaluating whether or not the time spent with a novel mouse is longer than that of a familiar mouse after exploring a stimulus mouse (familiar) for 10 minutes in the experimental animal, and after adding a new stimulus mouse (novel) together for 10 minutes. In this case, the old mouse is called familiar, and the new mouse is called novel. […] Experimental results were expressed as a preference index by measuring the time the test mouse explores each mouse or the sniffing time to each mouse. The higher the preference index, the more time spent with the novel mouse than with the familiar mouse, or the more time spent sniffing with the novel mouse than with the familiar mouse. […] Through this, it was confirmed that rilmenidine treatment can improve sociability (FIG. 5).

[2] = system: Fmr1-deficient animal model; test: three-chamber test, sociability in fragile X syndrome animal model; format: in vivo; conditions: rilmenidine intraperitoneally (1 mg/kg / 50 ug/kg printed), 30 minutes after administration, FIG. 1
Procedure: Purchased a 5-week-old Fmr 1 knockout mouse (Jackson Laboratory, USA) weighing about 22 g to 24 g, and acclimatized to an environment with a temperature of 23±2° C. and humidity of 55±10% and a light-dark cycle of 12 hours while allowing them to freely consume water and feed. After breeding (Konkuk University Laboratory Animal Center), they were used for experiments. For all animals, wild-type (WT) with normal FMRP expression and male KO mice lacking FMRP (Fragile X mental retardation protein) expression (which induces Fragile X Syndrome (FXS)) were used. Dosing and experiments were performed according to the age of the week. Dosing was performed at the same time. Behavioral experiments were conducted 30 minutes after administration. It was divided into groups administered with 1 mg/kg each of rilmenidine (Sigma Aldrich) in FMRP expression-deficient knock-out (Knock-Out) mice, wild-type (Wild Type) mice, and 0.25 DMSO in FMRP expression-deficient knock-out mice (6 mice per group). For the drug administration group, rilmenidine was dissolved in 0.25% DMSO and then administered intraperitoneally at a dose of 50 ug/kg. Meanwhile, 0.25% DMSO was intraperitoneally administered to the control group. […] The time the test mouse explored each stimulus mouse was measured and expressed as %.

[3] = system: animal model treated with MK-801 in wild-type mice; test: pre-pulse suppression (startle response) test in MK-801 treated animal model; format: in vivo, mouse; conditions: wild-type mice treated with MK-801 and then rilmenidine intraperitoneally, FIG. 2
Procedure: The startle response was confirmed in an animal model treated with MK-801 in wild-type mice. Mice were divided into groups, and 0.9% physiological saline (saline solution), rilmenidine, or a positive control drug (aripiprazole) was intraperitoneally administered to each group. Then, sensorimotor gating was evaluated through a pre-wave suppression test (converted using Equation 1). […] Pre-pulse suppression (%)=100−[(startle response to pre-stimulus+stimulus)/(startle response to stimulus)]*100 [Equation 1] Confirmation of Cognitive Improvement Effect of Rilmenidine

[4] = system: animal model treated with MK-801 in wild-type mice; test: novel object recognition test in MK-801 treated animal model; format: in vivo, mouse; conditions: wild-type mice treated with MK-801 and then rilmenidine (0.3 mg/kg), test 24 hours after training, FIG. 3
Procedure: The cognitive improvement effect of rilmenidine was confirmed using an animal model treated with MK-801 in wild-type mice. The experiment was a novel object recognition test, where two identical objects were placed in the same location and trained, and 24 hours later, one identical object (familiar) and the other new object (novel) were put in, and the cognitive ability of the animal was tested by evaluating whether they could distinguish between familiar and new objects.

[5] = system: animal model lacking Cntnap2; test: three-chamber test, sociability index in Cntnap2-deficient autism animal model; format: in vivo, mouse; conditions: Cntnap2-deficient mice treated with rilmenidine, FIG. 4
Procedure: To confirm the therapeutic effect of rilmenidine on social deficits, one of the phenotypes of developmental disorders, a three-chamber test was performed using an animal model lacking Cntnap2. The sociability index of FIG. 4 represents a value obtained by dividing stranger (retention time for a mouse) by empty (retention time for an empty space).

## C1COC(NC(C2CC2)C2CC2)=N1 [rilmenidine, N-(dicyclopropylmethyl)-4,5-dihydro-1,3-oxazol-2-amine]
[1]
  preference index: sniffing time to novel mouse vs familiar mouse: sniffed more
  preference index: time spent with novel mouse vs familiar mouse: spent more time
[2]
  time the test mouse explored novel vs familiar stimulus mouse (sociability): more time was spent with the novel mouse than with the familiar mouse
[3]
  pre-pulse suppression: the reduced pre-pulse suppression was restored
[4]
  ability to distinguish novel object from familiar object (cognitive improvement): the ability to distinguish novel objects was improved
[5]
  sociability index: retention time for mouse (stranger) vs empty space: the retention time for the mouse was longer than the retention time for the empty space
